According to paper PMC5796017, “Enantiomeric Effect of D-Amino Acid Substitution on the Mechanism of Action of α-Helical Membrane-Active Peptides” (International Journal of Molecular Sciences, 2017):
Converted amounts (≈) assume the structure as drawn.

What was measured:
[1] = RP-HPLC retention time as relative hydrophobicity; format: physicochemical; conditions: 25 °C, used by the paper as measure of relative hydrophobicity
Procedure: The RP-HPLC retention time has been widely used to represent the relative hydrophobicity of peptides in many studies.The relative hydrophobicity of the peptides was determined by the RP-HPLC retention times at 25 °C. The change in hydrophobicity of the peptides caused by D-amino acid substitutions was mainly due to the disruption of the helical structure.

E. coli ATCC25922 [2] = experiment: Outer membrane permeability assay (NPN uptake); format: cell-based, Escherichia coli; conditions: 16 μM peptide, 10 min, excitation 350 nm, emission 420 nm
From the text: To explore the potential role of the helicity of the peptides in damaging cell membranes, we investigated the disruption of the outer membrane of Escherichia coli (E. coli) by quantifying the fluorescence intensity of 1-N-phenylnaphthylamine (NPN), which is a hydrophobic fluorescent probe. The intensity of NPN is weak in a hydrophilic environment. The fluorescence intensity of NPN gradually increases as it is exposed to a more hydrophobic environment due to damage to the bacterial outer membrane by MAPs.
The outer membrane permeability of the peptides against E. coli ATCC25922 was evaluated using the hydrophobic fluorescent probe NPN, as performed previously. In brief, E. coli was cultured in LB medium at 37 °C until the absorbance of the bacterial suspension at 600 nm was 0.4–0.6, the bacterial pellet was collected by centrifugation and resuspended in a reaction buffer (pH 7.4, 5 mM HEPES, 5 mM NaN3, 0.25 mM NPN) until the absorbance at 600 nm was 0.5. Then, an aliquot of the peptide sample and the bacterial suspension were co-incubated to give a final peptide concentration of 16 μM. The same volume of reaction buffer was used as the negative control. A Shimadzu RF-5301 PC fluorescent spectrometer (excitation wavelength of 350 nm, emission wavelength of 420 nm) was used to collect data continuously for 10 min.

P. aeruginosa ATCC27853 = experiment: Antimicrobial activity, microtiter dilution MIC; format: cell-based, Pseudomonas aeruginosa; conditions: G−; MH medium, 5 × 10^5 CFU/mL, 37 °C, 24 h, triplicate
Procedure, shortened: (§1)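 Broth microdilution in Mueller–Hinton medium, inoculum 5 × 10^5 CFU/mL, serially diluted peptide, 24 h at 37 °C. MIC taken as lowest peptide concentration preventing growth; triplicate runs.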

[3] = tested on: human red blood (hRBC) cells; experiment: Hemolytic activity assay; format: cell-based; conditions: 2% human RBC in PBS, 37 °C, 2 h, absorbance 578 nm, triplicate
Procedure, shortened: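 Healthy human RBCs (2% suspension in PBS) were incubated with serially diluted peptides for 2 h at 37 °C, and released hemoglobin in supernatant was read at 578 nm. Percent hemolysis was taken relative to distilled water (100%) after subtracting PBS (0%); run in triplicate.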

S. aureus ATCC25923 = experiment: Antimicrobial activity, microtiter dilution MIC; format: cell-based, Staphylococcus aureus; conditions: G+; MH medium, 5 × 10^5 CFU/mL, 37 °C, 24 h, triplicate
Procedure, shortened: as §1

E. coli ATCC25922 [4] = experiment: AFM imaging; format: cell-based, Escherichia coli; conditions: treatment 30 min, imaged in air, contact mode
Procedure: (§2) The mechanism of the interaction of the peptides with the different kinds of membranes was further analyzed by AFM. E. coli and HeLa cells were imaged to observe the morphologic change of cell membranes with, and without, treatment with V13K. […] Similarly, the surface of untreated cells fixed with, or without, 4% paraformaldehyde were intact and the membrane surface appeared quite smooth (Figure 4E–H).
(§3) The AFM imaging of E. coli ATCC25922 and HeLa cells before, and after, incubation with V13K were performed using an AFM 5500 (Agilent Technologies, Chandler, AZ, USA). The AFM imaging of E. coli was used on the contact mode and the cantilever was used as the B-tip (DNP, B-tip, Bruker AFM probes, California, CA, USA). The AFM imaging of HeLa was used on the AAC mode and the cantilever was used as the D-tip (DNP, D-tip, Bruker AFM probes, Camarillo, California, CA, USA). A single bacterial colony was picked and cultured in Mueller–Hinton (MH) medium for 18–20 h. […] The E. coli and peptide-treated bacteria samples (after treatment for 30 min) were applied onto mica and imaged in air using the contact mode and recorded with 512 × 512 pixels. The images of HeLa cells and peptide-treated HeLa cells (after treatment for 5 min) were obtained in Dulbecco’s Modified Eagle’s medium (DMEM) using the Acoustic AC (AAC) mode and recorded with 512 × 512 pixels. […]

HeLa cells = experiment: AFM imaging; format: cell-based, human; conditions: treatment 5 min, DMEM, AAC mode
Procedure: as §2, §3

S. epidermidis ATCC12228 = experiment: Antimicrobial activity, microtiter dilution MIC; format: cell-based, Staphylococcus epidermidis; conditions: G+; MH medium, 5 × 10^5 CFU/mL, 37 °C, 24 h, triplicate
Procedure, shortened: as §1

## CC[C@H](C)[C@H](NC(=O)[C@H](C)NC(=O)[C@H](CCCCN)NC(=O)[C@H](CC(C)C)NC(=O)[C@H](C)NC(=O)[C@@H](NC(=O)[C@H](Cc1cnc[nH]1)NC(=O)[C@H](CC(C)C)NC(=O)[C@@H](NC(=O)[C@@H](NC(=O)[C@H](CCCCN)NC(=O)[C@H](CCCCN)NC(=O)[C@H](C)NC(=O)[C@H](CO)NC(=O)[C@H](CCCCN)NC(=O)[C@H](Cc1ccccc1)NC(=O)[C@@H](NC(=O)[C@H](CCCCN)NC(=O)[C@H](CC(C)C)NC(=O)[C@H](Cc1ccccc1)NC(=O)[C@H](CO)NC(=O)[C@H](CCCCN)NC(=O)[C@H](Cc1c[nH]c2ccccc12)NC(=O)[C@H](CCCCN)NC(C)=O)[C@@H](C)O)[C@@H](C)O)C(C)C)[C@@H](C)O)C(=O)N[C@@H](CO)C(=O)N[C@@H](CO)C(N)=O [Peptide V13K]
[1]
  tR (RP-HPLC retention time), relative hydrophobicity: 44.48 min
E. coli ATCC25922 [2]
  Outer membrane permeabilization, NPN fluorescence intensity: enhanced
P. aeruginosa ATCC27853
  MIC: 8 µM (≈ 23.9 µg/mL)
[3]
  MHC (minimal hemolytic concentration): 250 µM
S. aureus ATCC25923
  MIC: 32 µM (≈ 95.7 µg/mL)
E. coli ATCC25922 [4]
  Morphology of bacterial membrane by AFM: obvious damage to the morphology of bacterial membrane
HeLa cells
  Morphology of HeLa cell membrane by AFM: pores and cavities were visible on the surface of the cells
S. epidermidis ATCC12228
  MIC: 4 µM (≈ 12 µg/mL)
